Experimental data taken from US9593123B2, “Triazolo[4,5-D]pyrimidine derivatives” (Hoffmann-La Roche Inc., priority 2013, dated 2017).
pEC50: −log10 of the molar value.

Key:
[1] = target: human CB2 receptor (Homo sapiens (Human), UniProt P34972); experiment: cAMP assay, CHO cells expressing human CB2 receptors; type: cell-based; details: functional cAMP assay, read-out: CB2 hcAMP EC50
Procedure: (§1) CHO cells expressing human CB1 or CB2 receptors are seeded 17-24 hours prior to the experiment 50.000 cells per well in a black 96 well plate with flat clear bottom (Corning Costar #3904) in DMEM (Invitrogen No. 31331), 1×HT supplement, with 10% fetal calf serum and incubated at 5% CO2 and 37° C. in a humidified incubator. The growth medium was exchanged with Krebs Ringer Bicarbonate buffer with 1 mM IBMX and incubated at 30° C. for 30 min. Compounds were added to a final assay volume of 100 μl and incubated for 30 min at 30° C. Using the cAMP-Nano-TRF detection kit the assay (Roche Diagnostics) was stopped by the addition of 50 μl lysis reagent (Tris, NaCl, 1.5% Triton X100, 2.5% NP40, 10% NaN3) and 50 μl detection solutions (20 μM mAb Alexa700-cAMP 1:1, and 48 μM Ruthenium-2-AHA-cAMP) and shaken for 2 h at room temperature. The time-resolved energy transfer is measured by a TRF reader (Evotec Technologies GmbH), equipped with a ND:YAG laser as excitation source. The plate is measured twice with the excitation at 355 nm and at the emission with a delay of 100 ns and a gate of 100 ns, total exposure time 10 s at 730 (bandwidth 30 nm) or 645 nm (bandwidth 75 nm), respectively. The FRET signal is calculated as follows: FRET=T730-Alexa730-P(T645-B645) with P=Ru730-B730/Ru645-B645, where T730 is the test well measured at 730 nM, T645 is the test well measured at 645 nm, B730 and B645 are the buffer controls at 730 nm and 645 nm, respectively. cAMP content is determined from the function of a standard curve spanning from 10 μM to 0.13 nM cAMP.
(§2) EC50 values were determined using Activity Base analysis (ID Business Solution, Limited). The EC50 values for a wide range of cannabinoid agonists generated from this assay were in agreement with the values published in the scientific literature.

[2] = target: human CB1 receptor (Homo sapiens (Human), UniProt P21554); experiment: cAMP assay, CHO cells expressing human CB1 receptors; type: cell-based; details: functional cAMP assay, read-out: CB1 hcAMP EC50
Procedure: as §1, §2

human CB2 receptor, sequence (P34972 whole entry): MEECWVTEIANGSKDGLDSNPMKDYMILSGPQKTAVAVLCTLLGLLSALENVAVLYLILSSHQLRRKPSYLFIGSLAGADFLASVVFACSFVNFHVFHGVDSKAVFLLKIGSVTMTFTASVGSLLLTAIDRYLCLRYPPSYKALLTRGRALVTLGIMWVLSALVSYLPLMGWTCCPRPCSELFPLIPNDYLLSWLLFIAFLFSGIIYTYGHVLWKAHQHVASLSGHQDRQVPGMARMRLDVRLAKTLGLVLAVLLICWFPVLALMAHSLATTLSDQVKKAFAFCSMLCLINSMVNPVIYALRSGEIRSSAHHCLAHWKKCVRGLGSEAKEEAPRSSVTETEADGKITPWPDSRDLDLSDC
human CB1 receptor, sequence (P21554 whole entry): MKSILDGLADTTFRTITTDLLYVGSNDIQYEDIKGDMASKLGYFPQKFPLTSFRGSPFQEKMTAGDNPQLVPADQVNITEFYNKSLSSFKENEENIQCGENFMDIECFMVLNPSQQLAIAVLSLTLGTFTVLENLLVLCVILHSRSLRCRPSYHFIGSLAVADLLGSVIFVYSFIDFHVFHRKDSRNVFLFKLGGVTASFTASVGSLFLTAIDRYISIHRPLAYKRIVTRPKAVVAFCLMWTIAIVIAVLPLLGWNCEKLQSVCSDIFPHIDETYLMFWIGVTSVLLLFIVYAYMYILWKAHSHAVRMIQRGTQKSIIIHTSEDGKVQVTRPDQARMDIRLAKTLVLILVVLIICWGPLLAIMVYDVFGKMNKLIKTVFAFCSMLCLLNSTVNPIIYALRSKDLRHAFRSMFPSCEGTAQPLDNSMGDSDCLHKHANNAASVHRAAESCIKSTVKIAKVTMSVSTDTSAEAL

SMILES	pEC50 [1]	pEC50 [2]
CC(C)Oc1nc(N2CC[C@H](O)C2)c2nnn(Cc3ccccc3Cl)c2n1 [Example 62, (3S)-1-[3-[(2-Chlorophenyl)methyl]-5-propan-2-yloxytriazolo[4,5-d]pyrimidin-7-yl]pyrrolidin-3-ol]	7.83	< 5.00
FC1(F)CCN(c2nc(N3CCCC3)nc3c2nnn3Cc2ccccc2Cl)C1 [Example 10, 3-[(2-Chlorophenyl)methyl]-7-(3,3-difluoropyrrolidin-1-yl)-5-pyrrolidin-1-yltriazolo[4,5-d]pyrimidine]	8.54	6.66
Cc1nnc(Cn2nnc3c(N4CCC(F)(F)C4)nc(O[C@@H](C)C(F)(F)F)nc32)o1 [Example 71, 2-[[7-(3,3-Difluoropyrrolidin-1-yl)-5-[(2S)-1,1,1-trifluoropropan-2-yl]oxytriazolo[4,5-d]pyrimidin-3-yl]methyl]-5-methyl-1,3,4-oxadiazole]	6.67	< 5.00
CC(=O)N[C@H]1CCN(c2nc(OCC(C)(C)C)nc3c2nnn3Cc2ccccc2Cl)C1 [Example 77, N-[(3S)-1-[3-[(2-Chlorophenyl)methyl]-5-(2,2-dimethylpropoxy)triazolo[4,5-d]pyrimidin-7-yl]pyrrolidin-3-yl]acetamide]	7.24	< 5.00
CC(C)Oc1nc(N2CC[C@H](O)C2)c2nnn(Cc3nnnn3C)c2n1 [Example 64, (3S)-1-[3-[(1-Methyltetrazol-5-yl)methyl]-5-propan-2-yloxytriazolo[4,5-d]pyrimidin-7-yl]pyrrolidin-3-ol]	6.76	< 5.00
Cc1nonc1Cn1nnc2c(N3CCC(F)(F)C3)nc(NC(C)(C)C)nc21 [Example 26, N-tert-Butyl-7-(3,3-difluoropyrrolidin-1-yl)-3-[(4-methyl-1,2,5-oxadiazol-3-yl)methyl]triazolo[4,5-d]pyrimidin-5-amine]	9.00	< 5.00
CC(=O)N[C@H]1CCN(c2nc(NC(C)(C)C)nc3c2nnn3Cc2ncccc2Cl)C1 [Example 27, N-[(3S)-1-[5-(tert-Butylamino)-3-[(3-chloropyridin-2-yl)methyl]triazolo[4,5-d]pyrimidin-7-yl]pyrrolidin-3-yl]acetamide]	6.57	< 5.00
C#CCOc1nc(N2CCC(F)(F)C2)c2nnn(Cc3ccccc3Cl)c2n1 [Example 56, 3-[(2-Chlorophenyl)methyl]-7-(3,3-difluoropyrrolidin-1-yl)-5-prop-2-ynoxytriazolo [4,5-d]pyrimidine]	7.96	< 5.00
CC(C)Sc1nc(N2CCC(F)(F)C2)c2nnn(Cc3ccccc3Cl)c2n1 [Example 84, 3-[(2-Chlorophenyl)methyl]-7-(3,3-difluoropyrrolidin-1-yl)-5-propan-2-ylsulfanyltriazolo[4,5-d]pyrimidine]	8.64	7.10
CC(Oc1nc(N2CCC(F)(F)C2)c2nnn(Cc3ccccc3Cl)c2n1)C(F)(F)F (stereo not drawn) [Example 41, 3-[(2-Chlorophenyl)methyl]-7-(3,3-difluoropyrrolidin-1-yl)-5-(1,1,1-trifluoropropan-2-yloxy)triazolo[4,5-d]pyrimidine]	8.07	< 5.00
CC(=O)N[C@H]1CCN(c2nc(OCC(C)(C)C)nc3c2nnn3Cc2nonc2C)C1 [Example 79, N-[(3S)-1-[5-(2,2-Dimethylpropoxy)-3-[(4-methyl-1,2,5-oxadiazol-3-yl)methyl]triazolo [4,5-d]pyrimidin-7-yl]pyrrolidin-3-yl]acetamide]	7.14	< 5.00
O[C@H]1CCN(c2nc(OCC(F)(F)F)nc3c2nnn3Cc2ccccc2C(F)(F)F)C1 [Example 61, (3S)-1-[5-(2,2,2-Trifluoroethoxy)-3-[[2-(trifluoromethyl)phenyl]methyl]triazolo[4,5-d]pyrimidin-7-yl]pyrrolidin-3-ol]	8.12	< 5.00
CC(C)COc1nc(N2CCC(F)(F)C2)c2nnn(Cc3ccccc3Cl)c2n1 [Example 54, 3-[(2-Chlorophenyl)methyl]-7-(3,3-difluoropyrrolidin-1-yl)-5-(2-methylpropoxy) triazolo[4,5-d]pyrimidine]	8.92	< 5.00
COc1ccc(Cn2nnc3c(N4CCC(F)(F)C4)nc(C4CC4)nc32)cc1 [Example 2, 5-Cyclopropyl-7-(3,3-difluoropyrrolidin-1-yl)-3-[(4-methoxyphenyl)methyl]triazolo [4,5-d]pyrimidine]	8.19	< 5.00
CC(=O)N[C@H]1CCN(c2nc(NC(C)(C)C)nc3c2nnn3Cc2ccccc2Cl)C1 [Example 97, N-[(3S)-1-[5-(tert-butylamino)-3-[(2-chlorophenyl)methyl]triazolo[4,5-d]pyrimidin-7-yl]pyrrolidin-3-yl]acetamide]	7.42	< 5.00
Cn1nnnc1Cn1nnc2c(N3CCC(F)(F)C3)nc(NC(C)(C)C)nc21 [Example 25, N-tert-Butyl-7-(3,3-difluoropyrrolidin-1-yl)-3-[(1-methyltetrazol-5-yl)methyl]triazolo [4,5-d]pyrimidin-5-amine]	8.12	< 5.00
CC(C)Oc1nc(N2CC[C@H](O)C2)c2nnn(Cc3ccccc3S(C)(=O)=O)c2n1 [Example 63, (3S)-1-[3-[(2-Methylsulfonylphenyl)methyl]-5-propan-2-yloxytriazolo[4,5-d]pyrimidin-7-yl]pyrrolidin-3-ol]	6.72	< 5.00
Clc1ccccc1Cn1nnc2c(N3CCCCC3)nc(N3CCCCC3)nc21 [Example 7, 3-[(2-Chlorophenyl)methyl]-5,7-di(piperidin-1-yl)triazolo[4,5-d]pyrimidine]	8.04	< 5.00
CC(C)CS(=O)(=O)c1nc(N2CCC(F)(F)C2)c2nnn(Cc3ccccc3Cl)c2n1 [Example 94, 3-[(2-Chlorophenyl)methyl]-7-(3,3-difluoropyrrolidin-1-yl)-5-(2-methylpropylsulfonyl)triazolo[4,5-d]pyrimidine]	8.55	< 5.00
Cc1noc(Cn2nnc3c(N4CC[C@@](C)(O)C4)nc(N4CCOCC4)nc32)n1 [Example 39, (3R)-3-Methyl-1-[3-[(3-methyl-1,2,4-oxadiazol-5-yl)methyl]-5-morpholin-4-yltriazolo[4,5-d]pyrimidin-7-yl]pyrrolidin-3-ol]	6.52	< 5.00
CCCCSc1nc(N2CCC(F)(F)C2)c2nnn(Cc3ccccc3Cl)c2n1 [Example 91, 5-Butylsulfanyl-3-[(2-chlorophenyl)methyl]-7-(3,3-difluoropyrrolidin-1-yl)triazolo [4,5-d]pyrimidine]	8.16	< 5.00
Cn1nnnc1Cn1nnc2c(N3CCC(F)(F)C3)nc(OCC(C)(C)C)nc21 [Example 65, 7-(3,3-Difluoropyrrolidin-1-yl)-5-(2,2-dimethylpropoxy)-3-[(1-methyltetrazol-5-yl)methyl]triazolo[4,5-d]pyrimidine]	7.92	< 5.00
Cc1noc(Cn2nnc3c(N4CCC(F)(F)C4)nc(O[C@@H](C)C(F)(F)F)nc32)n1 [Example 72, 5-[[7-(3,3-Difluoropyrrolidin-1-yl)-5-[(2S)-1,1,1-trifluoropropan-2-yl]oxytriazolo[4,5-d]pyrimidin-3-yl]methyl]-3-methyl-1,2,4-oxadiazole]	7.17	< 5.00
COCC(C)Oc1nc(N2CCC(F)(F)C2)c2nnn(Cc3ccccc3Cl)c2n1 (stereo not drawn) [Example 57, 3-[(2-Chlorophenyl)methyl]-7-(3,3-difluoropyrrolidin-1-yl)-5-(1-methoxypropan-2-yloxy)triazolo[4,5-d]pyrimidine]	8.06	< 5.00
C[C@H](Oc1nc(N2CCC(F)(F)C2)c2nnn(Cc3ccccc3S(C)(=O)=O)c2n1)C(F)(F)F [Example 69, 7-(3,3-Difluoropyrrolidin-1-yl)-3-[(2-methylsulfonylphenyl)methyl]-5-[(2S)-1,1,1-trifluoropropan-2-yl]oxytriazolo[4,5-d]pyrimidine]	8.49	< 5.00
CCOc1nc(N2CCC(F)(F)C2)c2nnn(Cc3ccccc3Cl)c2n1 [Example 44, 3-[(2-Chlorophenyl)methyl]-7-(3,3-difluoropyrrolidin-1-yl)-5-ethoxytriazolo[4,5-d]pyrimidine]	8.40	< 5.00
C[C@@H](Oc1nc(N2CCC(F)(F)C2)c2nnn(Cc3ccccc3Cl)c2n1)C(F)(F)F [Example 51, 3-[(2-Chlorophenyl)methyl]-7-(3,3-difluoropyrrolidin-1-yl)-5-[(2R)-1,1,1-trifluoropropan-2-yl]oxytriazolo[4,5-d]pyrimidine]	8.68	< 5.00
